Data published in paper PMC10206162 (Nature Communications, 2023).
Like-named read-outs stand apart in the source and are kept apart here. Where no end group is shown, it is not given here.

Columns and labels:
[1] = target: human NaV1.7 (Homo sapiens, UniProt Q15858); assay: cell-based
[2] = target: human NaV1.6 (Homo sapiens, UniProt Q9UQD0); assay: cell-based
[3] = target: human NaV1.9 (Homo sapiens, UniProt Q9UI33); format: cell-based
[4] = target: human NaV1.8 (Homo sapiens, UniProt Q9Y5Y9); assay: cell-based; settings: EC50 (potency), hNaV1.8
[5] = target: mouse NaV1.7 (Mus musculus, UniProt Q62205); assay: cell-based; format: cell-based
Description: HEK293 cells stably expressing the α-subunit of mouse Nav1.7, human NaV1.6 or Nav1.7 plus the β1 subunit (SB Drug Discovery, Glasgow, United Kingdom) and Chinese Hamster Ovary (CHO) cells stably expressing human NaV1.8 plus the β3 subunit in a tetracycline-inducible system (ChanTest, Cleveland, OH, United States), were cultured were maintained on MEM supplemented with 10% heat-inactivated FBS, 2 mM L-glutamine in an incubator at 37 °C with 5% CO2 and passaged every 3–4 days (at 70–80% confluency) using TrypLE Express (Thermo Fisher Scientific).
Whole-cell patch-clamp experiments were performed using a QPatch16X automated electrophysiology platform (Sophion Bioscience, Ballerup, Denmark). The extracellular solution (ECS) contained 145 mM NaCl (replaced with 70 mM choline chloride for NaV1.7), 4 mM KCl, 2 mM CaCl2, 1 mM MgCl2, 10 mM HEPES, and 10 mM glucose (pH 7.4; osmolarity, 305 mOsm). The intracellular solution (ICS) contained 140 mM CsF, 1 mM/5 mM EGTA/CsOH, 10 mM HEPES, and 10 mM NaCl (pH 7.3) with CsOH (osmolarity, 320 mOsm). Peptides were diluted in ECS with 0.1% BSA.
Concentration-response experiments were performed using a holding potential of −90 mV and a 50-ms pulse to −20 mV ( + 10 mV for NaV1.8) every 20 s (0.05 Hz). […] Conductance-voltage curves were obtained by calculating the conductance (G) at each voltage (V) using the equation G = I/(V – Vrev), where Vrev is the reversal potential, and they were fitted with the following single or double Boltzmann equations: I = Imax/{1 + exp[(V50 − Vm)/k]} or I = {Imax(a)/[1+exp({V50 (a) – Vm}/k(a))]} + {Imax(b)/[1 + exp({V50(b) – Vm}/k(b))]}, where Imax is the maximal current after normalisation to the driving force, V50 is the half-activation potential, Vm is the membrane potential, and k is the slope factor. For statistical comparison of G-V curves, a two-tailed unpaired t-test was used.

Sequence of mouse NaV1.7 (Q62205 whole entry): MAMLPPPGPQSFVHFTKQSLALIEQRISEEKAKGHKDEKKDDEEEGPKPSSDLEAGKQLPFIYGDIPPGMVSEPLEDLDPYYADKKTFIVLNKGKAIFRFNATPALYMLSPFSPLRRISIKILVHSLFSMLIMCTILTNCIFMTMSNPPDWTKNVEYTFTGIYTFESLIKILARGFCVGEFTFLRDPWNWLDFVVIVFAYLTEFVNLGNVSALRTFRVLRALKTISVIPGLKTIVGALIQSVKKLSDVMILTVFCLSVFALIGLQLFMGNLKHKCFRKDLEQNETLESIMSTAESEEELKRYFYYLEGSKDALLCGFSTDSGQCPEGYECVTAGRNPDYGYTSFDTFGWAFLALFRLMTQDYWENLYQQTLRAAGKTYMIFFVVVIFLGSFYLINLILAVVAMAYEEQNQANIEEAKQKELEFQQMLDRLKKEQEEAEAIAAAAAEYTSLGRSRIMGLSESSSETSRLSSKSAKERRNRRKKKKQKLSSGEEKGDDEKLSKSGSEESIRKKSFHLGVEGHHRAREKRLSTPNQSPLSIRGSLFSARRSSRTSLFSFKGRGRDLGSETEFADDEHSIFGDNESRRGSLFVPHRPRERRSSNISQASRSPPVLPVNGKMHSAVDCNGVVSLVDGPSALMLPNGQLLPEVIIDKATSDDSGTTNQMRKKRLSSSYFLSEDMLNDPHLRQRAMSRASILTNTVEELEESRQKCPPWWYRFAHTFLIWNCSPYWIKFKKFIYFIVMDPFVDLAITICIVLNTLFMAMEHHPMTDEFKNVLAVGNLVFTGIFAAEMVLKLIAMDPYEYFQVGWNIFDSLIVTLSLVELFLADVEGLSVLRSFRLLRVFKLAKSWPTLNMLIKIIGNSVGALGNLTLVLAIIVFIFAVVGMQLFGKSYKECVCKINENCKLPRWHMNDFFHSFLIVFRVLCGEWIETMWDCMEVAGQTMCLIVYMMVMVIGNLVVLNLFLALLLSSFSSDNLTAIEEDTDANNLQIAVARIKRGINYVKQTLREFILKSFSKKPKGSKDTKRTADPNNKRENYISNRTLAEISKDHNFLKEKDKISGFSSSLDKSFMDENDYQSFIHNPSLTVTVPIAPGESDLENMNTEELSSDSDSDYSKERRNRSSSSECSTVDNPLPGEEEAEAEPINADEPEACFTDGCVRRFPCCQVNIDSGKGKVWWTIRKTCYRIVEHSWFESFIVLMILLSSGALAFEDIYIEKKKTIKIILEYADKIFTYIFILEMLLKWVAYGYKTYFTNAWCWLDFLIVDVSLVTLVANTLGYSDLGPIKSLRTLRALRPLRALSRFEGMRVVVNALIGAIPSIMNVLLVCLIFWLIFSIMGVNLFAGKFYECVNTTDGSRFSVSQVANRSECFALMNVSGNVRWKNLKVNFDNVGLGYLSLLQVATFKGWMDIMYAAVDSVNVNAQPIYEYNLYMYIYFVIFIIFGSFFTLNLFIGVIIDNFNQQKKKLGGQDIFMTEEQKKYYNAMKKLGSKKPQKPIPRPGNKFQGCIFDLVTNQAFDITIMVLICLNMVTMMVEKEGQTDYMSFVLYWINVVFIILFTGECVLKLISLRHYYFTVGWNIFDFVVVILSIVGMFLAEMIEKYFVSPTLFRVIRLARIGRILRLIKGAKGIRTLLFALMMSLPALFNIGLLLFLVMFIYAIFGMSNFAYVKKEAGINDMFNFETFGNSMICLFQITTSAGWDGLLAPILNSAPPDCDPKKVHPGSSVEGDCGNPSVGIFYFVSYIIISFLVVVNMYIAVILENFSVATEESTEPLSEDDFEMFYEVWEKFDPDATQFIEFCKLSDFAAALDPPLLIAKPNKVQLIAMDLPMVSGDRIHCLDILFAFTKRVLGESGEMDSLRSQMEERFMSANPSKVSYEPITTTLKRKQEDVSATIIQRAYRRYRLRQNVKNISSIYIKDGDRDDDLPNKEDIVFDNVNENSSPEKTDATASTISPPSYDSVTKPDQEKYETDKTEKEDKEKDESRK
Sequence of mouse NaV1.7 (Q07699 19-218, further chain): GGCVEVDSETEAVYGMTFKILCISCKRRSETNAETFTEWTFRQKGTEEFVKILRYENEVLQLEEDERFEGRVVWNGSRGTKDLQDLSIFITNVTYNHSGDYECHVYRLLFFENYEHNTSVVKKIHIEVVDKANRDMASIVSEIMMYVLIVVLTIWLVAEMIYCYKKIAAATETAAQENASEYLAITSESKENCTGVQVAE
Sequence of human NaV1.7 (Q07699 19-218): as the sequence (Q07699 19-218, further chain) above
Sequence of human NaV1.7 (Q15858 whole entry): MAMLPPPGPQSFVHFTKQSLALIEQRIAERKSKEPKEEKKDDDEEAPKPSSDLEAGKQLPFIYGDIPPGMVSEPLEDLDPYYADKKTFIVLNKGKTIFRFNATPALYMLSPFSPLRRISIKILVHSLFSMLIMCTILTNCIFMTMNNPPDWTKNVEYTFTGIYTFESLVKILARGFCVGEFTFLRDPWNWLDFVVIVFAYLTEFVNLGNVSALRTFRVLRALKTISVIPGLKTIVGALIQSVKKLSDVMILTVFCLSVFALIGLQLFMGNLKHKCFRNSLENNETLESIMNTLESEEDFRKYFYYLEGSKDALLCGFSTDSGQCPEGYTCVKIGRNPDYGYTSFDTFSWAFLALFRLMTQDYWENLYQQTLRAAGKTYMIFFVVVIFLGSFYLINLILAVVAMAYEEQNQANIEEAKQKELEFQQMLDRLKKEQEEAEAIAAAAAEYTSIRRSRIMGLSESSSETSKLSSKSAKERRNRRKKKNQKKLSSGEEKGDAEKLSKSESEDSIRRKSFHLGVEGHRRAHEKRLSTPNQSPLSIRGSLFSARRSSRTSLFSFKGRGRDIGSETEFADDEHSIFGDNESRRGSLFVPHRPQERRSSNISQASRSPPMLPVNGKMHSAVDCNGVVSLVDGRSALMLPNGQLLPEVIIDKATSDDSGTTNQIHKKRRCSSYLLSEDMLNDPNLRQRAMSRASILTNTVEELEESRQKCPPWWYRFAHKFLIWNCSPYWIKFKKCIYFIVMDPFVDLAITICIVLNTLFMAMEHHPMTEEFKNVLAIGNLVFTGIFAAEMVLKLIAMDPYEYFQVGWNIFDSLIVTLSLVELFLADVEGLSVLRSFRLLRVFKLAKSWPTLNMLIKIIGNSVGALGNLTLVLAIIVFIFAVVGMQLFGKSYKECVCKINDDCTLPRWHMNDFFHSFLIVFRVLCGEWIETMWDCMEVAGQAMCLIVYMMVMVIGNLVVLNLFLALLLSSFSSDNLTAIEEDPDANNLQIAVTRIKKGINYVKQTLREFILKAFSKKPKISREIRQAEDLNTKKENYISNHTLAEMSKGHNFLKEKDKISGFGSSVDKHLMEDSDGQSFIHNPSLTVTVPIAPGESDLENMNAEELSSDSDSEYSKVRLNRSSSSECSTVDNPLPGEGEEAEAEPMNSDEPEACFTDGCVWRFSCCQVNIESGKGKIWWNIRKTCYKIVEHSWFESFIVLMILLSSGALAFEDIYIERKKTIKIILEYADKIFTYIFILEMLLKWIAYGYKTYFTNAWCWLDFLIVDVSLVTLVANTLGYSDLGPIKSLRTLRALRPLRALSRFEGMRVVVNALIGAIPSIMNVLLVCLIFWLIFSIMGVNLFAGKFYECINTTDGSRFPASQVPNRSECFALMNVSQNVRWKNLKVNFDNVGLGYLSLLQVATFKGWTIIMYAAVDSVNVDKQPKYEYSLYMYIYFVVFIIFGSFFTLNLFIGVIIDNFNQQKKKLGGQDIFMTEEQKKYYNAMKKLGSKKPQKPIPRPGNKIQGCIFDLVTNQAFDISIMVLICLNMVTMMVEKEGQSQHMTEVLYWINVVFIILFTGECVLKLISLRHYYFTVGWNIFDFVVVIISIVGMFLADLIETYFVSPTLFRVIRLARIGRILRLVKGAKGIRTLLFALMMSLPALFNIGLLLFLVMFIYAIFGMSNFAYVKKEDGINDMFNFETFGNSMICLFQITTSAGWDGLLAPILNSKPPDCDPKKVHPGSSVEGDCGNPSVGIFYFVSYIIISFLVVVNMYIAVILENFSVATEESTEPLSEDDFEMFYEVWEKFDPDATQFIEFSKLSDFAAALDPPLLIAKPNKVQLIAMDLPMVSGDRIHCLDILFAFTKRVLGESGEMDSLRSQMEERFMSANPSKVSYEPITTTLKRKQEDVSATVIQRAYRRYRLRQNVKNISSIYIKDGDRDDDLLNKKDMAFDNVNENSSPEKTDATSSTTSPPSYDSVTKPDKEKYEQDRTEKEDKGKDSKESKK

| Substance | hNaV1.7 peak current amplitude, % of control [1] [%] | EC50 ([1]; EC50 (potency), hNaV1.7) [nM] | EC50 ([1]; NaV1.7, best-fit EC50) [nM] | hNaV1.7 sustained current (I40-ms), % of control peak ([1]; SEM) [%] | EC50 [2] [nM] | activity at hNaV1.9 (sustained current vs control) [3] | EC50 ([1]; EC50 (potency), hNaV1.7, SEM) [nM] | EC50 ([2]; SEM) [nM] | hNaV1.9 I50-ms, % of peak ([3]; SEM) [%] | EC50 [4] [nM] | EC50 [5] [nM] | mNaV1.7 sustained current, % of control peak ([5]; 3 µM peptide, step –90 to –20 mV, n = 4-5 cells, mean ± SEM, SEM) [%] | EC50 ([5]; EC50 (potency), mNaV1.7, HEK293, hold −90 mV, pulse to −20 mV, I40-ms/Imax, mean ± SEM, SEM) [nM] | EC50 ([5]; EC50, 95% CI (profile likelihood), mNaV1.7 (I40ms), Supplementary Fig. 2f / 2i) [nM] |
| --- | --- | --- | --- | --- | --- | --- | --- | --- | --- | --- | --- | --- | --- | --- |
| GLPLLALLMTLPFIQHAITN-NH2 [Mri1a] | 68.1 ± 10.6 | > 10000 | 5600 | 3.4 ± 0.7 | 3240 | inactive |  |  |  |  |  |  |  |  |
| FLPLLILGSLLMTPPVIQAIHDAQR-NH2 [Pc1a, poneratoxin] | 57.8 ± 4.9 |  |  | 12.2 ± 1.2 |  |  | 2300 ± 400 | 97 ± 10 | 58.6 ± 4.4 | > 10000 | 1160 | 8.8 ± 2.0 | 1800 ± 200 | 718 to 2680 |
